Counter-ions that a name gives are not always drawn. Like-named read-outs stand apart in the source and are kept apart here.
Tests used:
[1] = Redox Indicators; cited from earlier work
M1WT3 cells = test: Carbachol stimulation of M1WT3 cells, extracellular acidification rate in a THERMOmax microplate reader (Example 8); type: cell-based; settings: for ΔpH/Sec: mean of triplicate
Description: The M1WT3 cells used for the following experiments were obtained from the American Type Culture Collection (No. CRL 1985). These cells were a line of CHO-K1 cells transfected with the gene for muscarinic receptors in order to provide cells responsive to cholinergic agonists, such as Carbachol. The M1WT3 cells were grown in Ham's F12 medium with 50 μg/ml […] (Geneticin), 10% fetal bovine serum, […], 1.0 mg/L streptomycin and 1000 units/L penicillin (growing medium) under 5% CO2 at 37° C.
To initiate growth, 5×10^4 M1WT3 cell/well (200 μL/well) were sterilely plated in selected individual wells of a flat bottom 96-well microplate. The selected wells were comprised of the inner 60 wells. At least 3 of the inner wells, however, were left without cells to be used as control wells. The entire microplate then was covered with a loosely-fitting plastic cover that allowed gas exchange to the wells and the microplate was incubated at 37° C. for approximately 24 hours to allow cells to attach to bottom of each selected well with cells.
Twelve hours prior to measuring extracellular acidification the growing media was aspirated off with a vacuum system and replaced with 200 μL of starving media (growing media with 1 mg/ml bovine serum albumin in place of the 10% fetal bovine serum) and the cells were again placed under 5% CO2 at 37° C. The microplate was then incubated for 12 hours. Within 30-60 minutes prior to monitoring the rates of extracellular acidification, the starving medium was aspirated off, the wells were rinsed with approximately 200 μL simple indicator medium (Table 2 components) and then filled with 200 μL of simple indicator medium. All media was warmed to 37° C. before addition to the cells.
The light absorbance of the individual wells of the 96-well microplate was read in a THERMOmax™ microplate absorbance reader modified to record the ratio of optical density at two wavelengths (560 nm/420 nm), kinetically at 37° C. for 15 minutes with automix on. The automix feature is described in the Operator's Manual for the THERMOmax™ instrument (Catalog No. 0112-0014) of Molecular Devices Corporation, Menlo Park, Calif. The automix feature provides for uniform mixing of the contents of each well of the multiassay plate for about 5 seconds, followed by measurement of optical density at the first wavelength (in this case 560 nm) in about 5 seconds, followed by a change in interference filter in about 1 second, followed by measurement of optical density at the second wavelength (in this case 420 nm) in about 5 seconds. Thus, all optical density measurements are completed within 11 seconds following termination of the agitation step and the time elapsed for any one well between measuring the optical density at the first and second wavelengths was 6 seconds. This was the minimum time between reading optical density at the first and second wavelengths possible with the THERMOmax™ instrument. Preferably the readings at the first and second wavelengths are made simultaneously.
Additionally, the contents of the microplate wells were not agitated between reading optical density at the first and second wavelengths so that the light scattering effects of the cells tended to be the same for the optical density measurements made at the first and second wavelengths for any one well. […] The reading cycle, with agitation, measuring absorbance at the first wavelength of light, changing the filter, and reading the absorbance at the second wavelength of light, was repeated at the rate of 3 cycles per minute (i.e. every 20 seconds).
At the end of the 15 minutes the reading cycles were stopped, the microplate was removed and the media was quickly aspirated off and replaced with simple indicator media containing a cell-affecting agent, in this case 0 to 300 μM Carbachol. The reading cycles then were repeated, as above, for two consecutive 15 minute data collection periods followed by one final 30 minute data collection period. […]

[2] = Apparent pH change with temperature of buffering systems as indicated by phenol red; type: physicochemical; settings: phenol red pH indicator, 50 mM total buffer

In the case of `O=C1C(Cl)=CC(=Nc2ccc(O)cc2)C=C1Cl` [2,6-Dichloroindophenol Sodium Salt], the “Potential at pHOa” value [1] is listed as 0.67 Volts.

For `COc1cc(-c2ccc(N)c(OC)c2)ccc1N.Cl.Cl` [3,3'-Dimethoxybenzidine Dihydrochloride], the “Potential at pHOa” value [1] is listed as 0.76 Volts.

For `COc1cc(-c2ccc(N)c(OC)c2)ccc1N` [3,3'-Dimethoxybenzidine], the “Potential at pHOa” value [1] is listed as 0.76 Volts.

In the case of `O=S(=O)([O-])c1ccc(Nc2ccccc2)cc1.O=S(=O)([O-])c1ccc(Nc2ccccc2)cc1.[Ba+2]` [Barium Diphenylaminesulfonate], the “Potential at pHOa” value [1] is given as 0.85 Volts.

For `C[N+](C)(C)CCOC(N)=O` [Carbachol], the “ΔProtons/Cell·Sec minus 0 Carbachol” value (M1WT3 cells; 3 μM, First 15 min) was 1.00E + 07 ΔProtons/Cell·Sec, the ΔpH/Sec (M1WT3 cells; 3 μM, First 15 min) was 7.1534E - 05 ΔpH/Sec and the “ΔProtons/Cell·Sec minus 0 Carbachol” value (M1WT3 cells; 3 μM, Last 30 min) was 1.44E - 07 ΔProtons/Cell·Sec. For the same compound, the ΔpH/Sec (M1WT3 cells; 3 μM, Last 30 min) was 5.0490E - 05 ΔpH/Sec, the “ΔProtons/Cell·Sec minus 0 Carbachol” value (M1WT3 cells; 3 μM, Second 15 min) was 1.12E - 07 ΔProtons/Cell·Sec and the ΔpH/Sec (M1WT3 cells; 3 μM, Second 15 min) was 5.2542E - 05 ΔpH/Sec. The “ΔProtons/Cell·Sec minus 0 Carbachol” value (M1WT3 cells; 10 μM, First 15 min) was 1.44E + 07 ΔProtons/Cell·Sec, the ΔpH/Sec (M1WT3 cells; 10 μM, First 15 min) was 7.5928E - 05 ΔpH/Sec and the “ΔProtons/Cell·Sec minus 0 Carbachol” value (M1WT3 cells; 10 μM, Last 30 min) was 2.10E - 07 ΔProtons/Cell·Sec. For the same compound, the ΔpH/Sec (M1WT3 cells; 10 μM, Last 30 min) was 5.7103E - 05 ΔpH/Sec, the ΔpH/Sec (M1WT3 cells; 10 μM, Second 15 min) was 5.6378E - 05 ΔpH/Sec and the “ΔProtons/Cell·Sec minus 0 Carbachol” value (M1WT3 cells; 30 μM, First 15 min) was 1.12E + 07 ΔProtons/Cell·Sec. The ΔpH/Sec (M1WT3 cells; 30 μM, First 15 min) was 7.2713E - 05 ΔpH/Sec, the ΔpH/Sec (M1WT3 cells; 30 μM, Last 30 min) was 5.7641E - 05 ΔpH/Sec and the “ΔProtons/Cell·Sec minus 0 Carbachol” value (M1WT3 cells; 30 μM, Second 15 min) was 1.47E - 07 ΔProtons/Cell·Sec. For the same compound, the ΔpH/Sec (M1WT3 cells; 30 μM, Second 15 min) was 5.6101E - 05 ΔpH/Sec, the “ΔProtons/Cell·Sec minus 0 Carbachol” value (M1WT3 cells; 300 μM, First 15 min) was 6.76E + 06 ΔProtons/Cell·Sec and the ΔpH/Sec (M1WT3 cells; 300 μM, First 15 min) was 8.8294E - 05 ΔpH/Sec. The ΔpH/Sec (M1WT3 cells; 300 μM, Last 30 min) was 5.2560E - 05 ΔpH/Sec, the “ΔProtons/Cell·Sec minus 0 Carbachol” value (M1WT3 cells; 300 μM, Second 15 min) was 1.11E - 07 ΔProtons/Cell·Sec and the ΔpH/Sec (M1WT3 cells; 300 μM, Second 15 min) was 5.2420E - 05 ΔpH/Sec. For the same compound, the activation at 3 µM (M1WT3 cells; 0.25 h, 3 μM, First 15 min, read-out: % Change compared to pre-Carbachol) was 5.94%, the activation at 3 µM (M1WT3 cells; 0.25 h, 3 μM, First 15 min, read-out: % Change compared to pre-Carbachol minus 0 Carbachol) was 12.6% and the activation at 10 µM (M1WT3 cells; 0.25 h, 10 μM, First 15 min, read-out: % Change compared to pre-Carbachol) was 20%. It also gave an activation at 10 µM (M1WT3 cells; 0.25 h, 10 μM, First 15 min, read-out: % Change compared to pre-Carbachol minus 0 Carbachol) of 26.6%, an activation at 30 µM (M1WT3 cells; 0.25 h, 30 μM, First 15 min, read-out: % Change compared to pre-Carbachol) of 18.6% and an activation at 30 µM (M1WT3 cells; 0.25 h, 30 μM, First 15 min, read-out: % Change compared to pre-Carbachol minus 0 Carbachol) of 25.3%. For the same compound, the activation at 300 µM (M1WT3 cells; 0.25 h, 300 μM, First 15 min, read-out: % Change compared to pre-Carbachol) was 19.4%, the activation at 300 µM (M1WT3 cells; 0.25 h, 300 μM, First 15 min, read-out: % Change compared to pre-Carbachol minus 0 Carbachol) was 26.1% and the activation at 3 µM (M1WT3 cells; 0.5 h, 3 μM, Last 30 min, read-out: % Change compared to pre-Carbachol) was -25.2%. For the same compound, the activation at 3 µM (M1WT3 cells; 0.5 h, 3 μM, Last 30 min, read-out: % Change compared to pre-Carbachol minus 0 Carbachol) was 20%, the activation at 3 µM (M1WT3 cells; 0.5 h, 3 μM, Second 15 min, read-out: % Change compared to pre-Carbachol) was -22.2% and the activation at 3 µM (M1WT3 cells; 0.5 h, 3 μM, Second 15 min, read-out: % Change compared to pre-Carbachol minus 0 Carbachol) was 15%. For the same compound, the activation at 10 µM (M1WT3 cells; 0.5 h, 10 μM, Last 30 min, read-out: % Change compared to pre-Carbachol) was -9.77%, the activation at 10 µM (M1WT3 cells; 0.5 h, 10 μM, Last 30 min, read-out: % Change compared to pre-Carbachol minus 0 Carbachol) was 35.5% and the activation at 10 µM (M1WT3 cells; 0.5 h, 10 μM, Second 15 min, read-out: % Change compared to pre-Carbachol) was -10.9%. The activation at 10 µM (M1WT3 cells; 0.5 h, 10 μM, Second 15 min, read-out: % Change compared to pre-Carbachol minus 0 Carbachol) was 26.3%, the activation at 30 µM (M1WT3 cells; 0.5 h, 30 μM, Last 30 min, read-out: % Change compared to pre-Carbachol) was -5.63% and the activation at 30 µM (M1WT3 cells; 0.5 h, 30 μM, Last 30 min, read-out: % Change compared to pre-Carbachol minus 0 Carbachol) was 39.6%. The activation at 30 µM (M1WT3 cells; 0.5 h, 30 μM, Second 15 min, read-out: % Change compared to pre-Carbachol) was -8.46%, the activation at 30 µM (M1WT3 cells; 0.5 h, 30 μM, Second 15 min, read-out: % Change compared to pre-Carbachol minus 0 Carbachol) was 28.8% and the activation at 300 µM (M1WT3 cells; 0.5 h, 300 μM, Last 30 min, read-out: % Change compared to pre-Carbachol) was -8.08%. For the same compound, the activation at 300 µM (M1WT3 cells; 0.5 h, 300 μM, Last 30 min, read-out: % Change compared to pre-Carbachol minus 0 Carbachol) was 37.2%, the activation at 300 µM (M1WT3 cells; 0.5 h, 300 μM, Second 15 min, read-out: % Change compared to pre-Carbachol) was -8.33% and the activation at 300 µM (M1WT3 cells; 0.5 h, 300 μM, Second 15 min, read-out: % Change compared to pre-Carbachol minus 0 Carbachol) was 28.9%.

With `O=C(O)CC(O)(CC(=O)O)C(=O)O` [Citrate buffer] the “apparent change in pH with change in temperature” value (“apparent change in pH with change” below) ([2]; with 1.0M NaCl added) was 8.06 millipH/°C.

In the case of `O.O.[C-]#N.[C-]#N.[Fe+2].c1cnc2c(c1)ccc1cccnc12.c1cnc2c(c1)ccc1cccnc12` [Dicyanobis(1,10-phenanthroline)Iron], the “Potential at pHOa” value [1] is given as 1.41 Volts.

In the case of `c1ccc(Nc2ccccc2)cc1` [Diphenylamine], the “Potential at pHOa” value [1] is given as 0.76 Volts.

With `O=C(O)CN(CCN(CC(=O)O)CC(=O)O)CC(=O)O` [EDTA, Ethylenedinitrilo-Tetraacetic Acid] the “apparent change in pH with change” value ([2]; equilibrium with CO2 in air) was “less than 1 millipH/°C”.

For `O=S(=O)(O)CCN1CCN(CCO)CC1` [HEPES, N-[2-Hydroxyethyl]piperazine-N'-[2-ethanesulfonic acid]], the “apparent change in pH with change” value ([2]; equilibrium with CO2 in air) was -3.92 millipH/°C.

For `O=S(=O)(O)CCN1CCOCC1` [MES, 2-[N-Morpholino]ethanesulfonic acid], the “apparent change in pH with change” value ([2]; equilibrium with CO2 in air) was -4.74 millipH/°C.

In the case of `O=S(=O)(O)CCCN1CCOCC1` [MOPS, 3-[N-Morpholino]propanesulfonic acid], the “apparent change in pH with change” value ([2]; equilibrium with CO2 in air) is reported as “less than 1 millipH/°C”.

In the case of `CN(C)c1ccc2nc3ccc(=[N+](C)C)cc-3sc2c1` [Methylene Blue], the “Potential at pHOa” value [1] is given as 0.53 Volts.

For `CN(C)c1ccc(N)cc1` [N,N-Dimethyl-p-phenylanediamine], the “Potential at pHOa” value [1] is listed as 0.76 Volts.

— US5766875A, “Metabolic monitoring of cells in a microplate reader” (priority 1995, dated 1998)
